Results on one molecule are retold here after US12318368B2, “Physics-driven discovery of novel small therapeutic compounds for use as a BCL-2 inhibitor” (BAHCESEHIR UNIVERSITESI, priority 2020, dated 2025).

In the assay the test system is HCT-116 cell lines. Nature of the assay: MTT cell proliferation assay. It counts as cell-based. How it is done: For cell culture experiments various cancer cell lines, HCT-116 colon cancer, U87-MG glial tumor, MCF7 breast cancer cell lines were used. Cells were seeded with high glucose DMEM medium (Biosera) supplemented with 10% FBS (Gibco) and 1× penicillin/streptomycin (Multicell). Twenty-four hours prior to molecule treatment, 10,000 cells were seeded into each well of 24-well cell culture plates. Molecules were used by preparing 4 mM stock solution in DMSO (Amresco). For molecule treatment, molecule stock solutions were diluted in DMEM with 10% FBS and added onto cells in each corresponding well. Final concentration of vehicle DMSO was 2% at maximum. […] We calculated the number of cells to be seeded to make sure that none of the cells reaches more than 60% confluency during the treatment period, as higher plate confluency levels would slow down cell proliferation independently from the molecule treatment.
Values of half-maximal inhibitory concentration were (IC50) determined by MTT cell proliferation assays. […] 570 nm absorbance values were recorded and IC50 values were calculated by dose response—inhibition curves and nonlinear regression analysis on GraphPad Prism 8 software. […] Following the initial incubation day, molecules were added and after incubation with MTT at 37° C. for 4 hours, formazan was solubilized with DMSO (Sigma-Aldrich, St. Louis, USA) and absorbance was measured at 570 nm. […]

Each structure is given as a SMILES string.

For `COCCN1C(=O)/C(=C/c2ccc(OCC(=O)Nc3ccc(C)cc3)cc2)S/C1=N\c1ccccc1` [compound of formula I], the “proliferation of the HCT-116 cells versus vehicle group (FIG. 1)” value (HCT-116 cells, compared with vehicle (max 2% DMSO)) was “reduced proliferation and apoptotic cell structures”. Moreover, the IC50 (Homo sapiens, 72 h, HCT-116 colon cancer cells, MTT, single treatment, three days results, absorbance 570 nm, read-out: IC50 (half-maximal inhibitory concentration)) is 25 µM.
